Peptide text beside a SMILES is read from it. * marks the point of attachment. Cbz = O=C(OCc1ccccc1)*

This is an account of results in patent US20120231007A1, “MODULATORS OF CELL CYCLE PROGRESSION” (SINGAPORE HEALTH SERVICES PTE. LTD., priority 2009, published 2012).

In one experiment the test system is U118 glioma cells. Briefly: Warburg effect: Western blot of AMPK phosphorylation, mTOR activity and ECT2 expression. Format: cell-based, human. As to the method:
Western blot analysis. Whole cell lysates were prepared at the indicated time points following treatment. Cells were lysed in 0.1% SDS buffer (50 mM Tris-HCl, pH7.5, 150 mM NaCl, 1% NP-40, 1% sodium deoxycholate, 0.1 mM sodium vanadate, 50 mM b-glycerophosphate, 1 mM NaF) supplemented with protease inhibitor cocktail (Roche, Basel, Switzerland). Lysates were clarified by centrifugation at 13,000 rpm for 20 min at 4° C. Protein quantity was determined by the Bradford Assay Reagent (Bio-Rad). Typically, 50 μg of protein was resolved on either 6% or 12% SDS-polyacrylamide and transferred onto PVDF membranes (Millipore, Billerica, Mass.). Membranes were probed using antibodies specific to Ect2 and other proteins listed in the attached document. Protein bands were visualized by chemiluminescence using the ECL Western blotting system (Amersham, Arlington Heights, Ill.) according to manufacturer's protocol. Actin was used as loading control.
The use of ECT2 inhibitor sensitizes glioma cell stochemotherapy treatment such as with Temozolomide (FIG. 14). ECT2 regulation by RTK/mTOR pathway through EGFR inhibition (FIG. 18) with Erlotinib (10 uM) (FIG. 18A), Akt inhibition with API2 (10 uM), and mTOR inhibition with Rapamycin (50 nM) (FIG. 18B) Warburg effect and ECT2 regulation was examined in U118 glioma cells. The cells were treated with glycolysis or oxidative phosphorylation inhibitors [2-Deoxy-glucose (2DG) and oligomycin, respectively]. Filipin III was used to permeabilise mitochondria to provide exogenous source of pyruvate for the Tricarboxylic acid (TCA) cycle. Cellular energy level was measured by Western blot analysis of AMPK phosphorylation.

A further experiment concerns p27^Kip1. Briefly: Western blot of p27^Kip1 protein. In kind it is cell-based, human. The following applies: MG132 100 nM added to cells over-expressing Ect2. On the procedure: Cell Culture and Transfection. A172, U87, U118, U373 and T98G human glioma cells (ATCC, Manassas, Va.) were cultured in Dulbecco's modified Eagle's medium (DMEM) supplemented with 10% fetal bovine serum (Hyclone, South Logan, Utah). Cells were synchronised at quiescence through serum starvation. Full-length human Ect2 was cloned into the expression vector pXJ41 using EcoRI and BamHI digestion. The Ect2 truncation mutants ΔN-Ect2-DH/PH/C, ΔN-Ect2-DH/PH and ΔN-Ect2-DH were cloned in pCTV3-HA3. p27-PF, p27-ApaI, pGVB2 were gifts. For transient expression, cells were seeded at 40% confluence and transfected with 1.5 μg of DNA using Polyfect transfection reagent (Qiagen GmBH, Hilden, Germany). For knockdown experiments, Ect2 siRNAs were transfected into cells using SilentFect (Bio-Rad, Hercules, Calif.). RhoA inhibitor C3 exoenzyme (Upstate Biotech, Billerica, Mass.) was introduced into cells using Lipofectamine2000 (Invitrogen, Carlsbad, Calif.) at a concentration of 10 mg/ml. Cells were treated with the proteasome inhibitor MG132 (Calbiochem, San Diego, Calif.) at a concentration of 100 nM.
Western blot analysis. Whole cell lysates were prepared at the indicated time points following treatment. […] Protein quantity was determined by the Bradford Assay Reagent (Bio-Rad). […]

With `O=CC[C@@H](O)[C@H](O)[C@H](O)CO` [2DG, 2-Deoxy-D-glucose], in the experiment with U118 glioma cells, the ECT2 expression result is “reduced” and the mTOR activity entry is “significantly lower”. The “phosphorylated AMPK” value in the experiment with U118 glioma cells (glycolysis inhibition) was “higher level”.
As to `CC[C@H]1/C=C/C=C/C[C@@H](C)[C@H](O)[C@@](C)(O)C(=O)[C@@H](C)[C@H](O)[C@@H](C)C(=O)[C@@H](C)[C@H](O)[C@@H](C)/C=C/C(=O)O[C@@H]2[C@H](C)[C@H](CC1)O[C@]1(CC[C@H](C)[C@H](C[C@@H](C)O)O1)[C@H]2C` [oligomycin], in the experiment on U118 glioma cells, the ECT2 expression result is “did not affect” and the mTOR activity entry is “did not affect”.
Take `CC(C)C[C@@H](C=O)NC(=O)[C@H](CC(C)C)NC(=O)[C@H](CC(C)C)NC(=O)OCc1ccccc1` [MG132] (Cbz-Leu-Leu-Leu-aldehyde): the “Ect2-mediated suppression of p27^Kip1” value in the experiment on p27^Kip1 is recorded as “completely abrogated”.
